Laboratory results reported in patent US20180353567A1, “TREATMENT OF CARDIOVASCULAR DISEASE WITH COMPOUNDS THAT PROMOTE SELECTIVE INTERACTION OF THE B2-ADRENERGIC RECEPTOR WITH B-ARRESTIN” (THOMAS JEFFERSON UNIVERSITY, priority 2015, published 2018).
“Also recorded” adds a separate entry of the source. Where a SMILES comes first, the peptide text is derived from it.

What was measured:
CXCR4 = biological target: T1, CXCR4 (Homo sapiens, UniProt P61073); test: β-arrestin2 recruitment to CXCR4 by BRET; format: cell-based; details: 50 nM SDF-1α, 1 μM isoproterenol or 10 μM ICL1-9
T1 construct: expressed in transfected cells; host or cells: HEK293 stably overexpressing FLAG-β2AR, transient transfection
T1 sequence (P61073 whole entry, species assumed): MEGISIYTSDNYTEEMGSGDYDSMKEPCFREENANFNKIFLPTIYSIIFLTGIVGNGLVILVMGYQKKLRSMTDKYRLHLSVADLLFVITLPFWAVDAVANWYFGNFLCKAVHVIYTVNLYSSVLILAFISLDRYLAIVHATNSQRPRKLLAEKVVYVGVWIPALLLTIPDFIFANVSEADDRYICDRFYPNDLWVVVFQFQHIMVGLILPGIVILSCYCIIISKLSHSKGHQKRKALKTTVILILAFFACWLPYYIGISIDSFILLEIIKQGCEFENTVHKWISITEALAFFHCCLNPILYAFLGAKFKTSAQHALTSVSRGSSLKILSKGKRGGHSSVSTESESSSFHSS
Method: β-arrestin2 recruitment to CXCR4 was measured similarly in HEK293 cells stably overexpressing a FLAG-β2AR and transiently transfected with β-arrestin2-GFP10 and CXCR4-RLucII (15). BRET was monitored post-stimulation using 50 nM SDF-1α, 1 μM isoproterenol or 10 μM ICL1-9.

FLAG-β1AR = biological target: T2, FLAG-β1AR (Homo sapiens, UniProt P08588); test: β1AR internalization by cell surface ELISA; format: cell-based; details: 1 h time-course
T2 construct: expressed in transfected cells
T2 sequence (P08588 whole entry): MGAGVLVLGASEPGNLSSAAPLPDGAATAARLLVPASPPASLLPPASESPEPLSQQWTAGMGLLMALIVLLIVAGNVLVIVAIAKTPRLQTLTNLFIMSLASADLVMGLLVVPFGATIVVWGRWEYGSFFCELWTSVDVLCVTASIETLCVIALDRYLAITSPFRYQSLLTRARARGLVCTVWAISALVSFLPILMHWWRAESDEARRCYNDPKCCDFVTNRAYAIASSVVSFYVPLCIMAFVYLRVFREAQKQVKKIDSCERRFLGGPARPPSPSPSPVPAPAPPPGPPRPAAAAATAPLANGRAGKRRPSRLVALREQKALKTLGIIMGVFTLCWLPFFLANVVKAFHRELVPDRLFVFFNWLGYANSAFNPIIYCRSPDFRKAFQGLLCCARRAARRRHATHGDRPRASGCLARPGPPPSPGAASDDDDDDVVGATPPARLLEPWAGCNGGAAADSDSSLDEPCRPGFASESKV
Method: (§1) Receptor internalization was measured by cell surface enzyme-linked immunosorbent assay as previously described (5, 45).

β2AR [1] = biological target: T3, β2AR (Homo sapiens, UniProt P07550); test: [125I]-iodocyanopindolol competitive radioligand binding; details: 1 nM radioligand
T3 sequence (P07550 whole entry): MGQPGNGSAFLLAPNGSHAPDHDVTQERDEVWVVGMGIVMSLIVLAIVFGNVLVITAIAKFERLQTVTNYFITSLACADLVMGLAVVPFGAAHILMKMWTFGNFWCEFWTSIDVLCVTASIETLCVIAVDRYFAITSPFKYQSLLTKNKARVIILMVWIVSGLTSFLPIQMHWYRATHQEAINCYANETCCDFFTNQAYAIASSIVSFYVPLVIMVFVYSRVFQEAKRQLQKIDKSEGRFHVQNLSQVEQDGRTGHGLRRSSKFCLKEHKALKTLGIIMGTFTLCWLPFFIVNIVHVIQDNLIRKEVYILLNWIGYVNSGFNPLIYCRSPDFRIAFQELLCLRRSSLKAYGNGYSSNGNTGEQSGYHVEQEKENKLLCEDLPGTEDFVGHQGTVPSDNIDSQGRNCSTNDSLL

phospholamban (PLB) = test: Phospholamban phosphorylation in isolated cardiomyocytes; format: cell-based, murine; details: 0.1 μM isoproterenol or 10 μM ICL1-9, 5 min
From the text: […]. Lysates were run on 8% SDS-PAGE gels and transferred to Immobilon-PSQ polyvinylidene fluoride […] pore size membranes (Millipore, Billerica, Mass.). PLB phosphorylation (cardiomyocyte lysates) was detected using anti-Phospho-Ser^16 PLB rabbit pAb (1:5000, Badrilla) and normalized to total PLB as detected with anti-PLB mouse mAb (1:1000, Badrilla). β-arrestin1 and 2 expression levels (left ventricular lysates) were detected using anti-β-arrestin1/2 rabbit mAb (1:1000, Cell Signaling Technology) and normalized to GAPDH levels as detected with anti-GAPDH rabbit mAb (1:1000, Cell Signaling Technology). Membranes were subsequently incubated with appropriate anti-rabbit or anti-mouse IRDye (680 or 800)-labeled antibodies and detected using the LiCOR Biosciences Odyssey system.

FLAG-β2AR [2] = biological target: T4, FLAG-β2AR (Homo sapiens, UniProt P07550); test: cAMP measurement in HEK293 cells stably overexpressing FLAG-β2AR; format: cell-based
T4 construct: expressed in transfected cells
T4 sequence (P07550 whole entry): as above
Method: HEK293 cells stably overexpressing a FLAG-β2AR were cultured to confluency in 24 well plates at 37° C. in Dulbecco's Modified Eagle Medium (DMEM, Cellgro) supplemented with 10% fetal bovine serum (FBS) and 50 μg/ml G418 sulfate (Cellgro). […] Stimulation was ended by the removal of media on ice and cells were lysed by adding 80 μl 0.1 M HCl followed by 20 min incubation at room temperature on an orbital shaker. Lysates were cleared by centrifugation at 1,000×g for 15 min. cAMP levels were measured using the Cayman Chemical Cyclic AMP EIA kit according to the manufacturer's instructions.

[3] = test system: primary murine cardiomyocytes; test: Ca2+ transient measurement in cardiomyocytes; format: cell-based
Method: (§2) Adult murine cardiac myocytes were isolated from the septum and LV free wall of 8-12 week old mice as previously described (47). Briefly, mice were heparinized (1,500 U/kg ip) and anesthetized (pentobarbital sodium, 50 mg/kg ip). Excised hearts were mounted on a steel cannula and retrograde perfused (100 cm H2O, 37° C.) with Ca2+-free bicarbonate buffer followed by enzymatic digestion (collagenases B and D, protease XIV). […] The final Ca2+ buffer was then aspirated and replaced with MEM (Sigma-Aldrich) containing 1.2 mM Ca2+, 2.5% FBS, and 1% penicillin/streptomycin. The pH was adjusted to 7.0 in 4% CO2 by the addition of NaHCO3 (0.57 g/l). After 1 h (4% CO2, 37° C.), media was replaced with FBS-free MEM containing 0.1 mg/ml BSA and antibiotics. Myocytes adherent to coverslips were bathed in 0.7 ml of air- and temperature-equilibrated (37° C.) HEPES-buffered (20 mM, pH 7.4) medium 199 containing 1.8 mM [Ca2+] and used within 2 to 8 h of isolation. For Ca^2+ transient measurements, cardiomyocytes were exposed to […] for 15 min at 37° C.

C57Bl/6 mice [4] = details: 24 hr reperfusion
Method: After 24 hr of reperfusion, the hearts were perfused with Evans Blue dye and the mice were sacrificed, hearts frozen, stained with TTC, photographed and risk and infarct areas calculated. Treated mice were also analyzed after 24 hr reperfusion for cell death staining (TUNEL, red), nuclear staining (DAPI, blue) and cardiomyocyte staining (α-sarcomeric actin, green) of cardiac slices.

β1AR = biological target: T5, β1AR (Homo sapiens, UniProt P08588); test: β1AR/β-arrestin2 interaction by FRET in U2S cells; format: cell-based; details: isoproterenol 1 μM, ICL1-9 10 μM
T5 construct: expressed in transfected cells; host or cells: human osteosarcoma U2S cells, adenoviral infection
T5 sequence (P08588 whole entry): as the sequence (P08588 whole entry) above

ERK1/2 = test: ERK phosphorylation by western blot in HEK293 FLAG-β2AR cells; format: cell-based; details: time-course
Method: HEK293 cells stably overexpressing FLAG-β2AR were grown to ˜90% confluence in 6 well plates and serum starved for 16 h. […] On ice, assay media was removed and 100 μl of lysis buffer was added. Cell lysates were scraped and briefly sonicated. 20 μl of 6× Laemmli buffer was added and the lysate was boiled for 10 min. ERK phosphorylation was detected by western blotting using a polyclonal primary antibody against phospho-ERK1/2 (1:500 in TBST with 5% BSA, Cell Signaling Technologies) and total ERK2 levels were detected using a monoclonal anti-ERK2 antibody (1:1000 in TBST with 5% BSA, Santa Cruz Biotechnologies). ERK phosphorylation levels (normalized to ERK2) were quantitated by detection of anti-mouse IRDye 800 and anti-rabbit IRDye 680 antibodies using a LiCOR Odyssey system.

β2AR [5] = biological target: T3, β2AR; test: β-arrestin2 recruitment to the β2AR by BRET in HEK293 cells; format: cell-based; parameters: expressed in transfected cells; host or cells: HEK293
EGFR = EGFR transactivation (phosphorylation at EGFR Tyr845) in HEK293 FLAG-β2AR cells; format: cell-based; details: HEK293 stably overexpressing FLAG-β2AR
FLAG-β2AR [6] = biological target: T4, FLAG-β2AR; test: β2AR internalization by cell surface ELISA; format: cell-based
Method: as §1

[7] = test system: adult murine cardiomyocytes; test: Adult murine cardiomyocyte contractility; format: cell-based
Method: as §2

FLAG-β2AR [8] = biological target: T4, FLAG-β2AR; test: β2AR phosphorylation (pSer355/pSer356) with phosphospecific antibody; format: cell-based; details: time-course; 1 μM isoproterenol, 10 μM carvedilol or 10 μM ICL1-9
Method: HEK293 cells stably overexpressing FLAG-β2AR were grown in 10 cm dishes at 37° C. in DMEM supplemented with 10% FBS and 50 μg/ml G418 sulfate (Cellgro). […] Briefly, cell lysates were immunoprecipitated using mouse monoclonal M2 anti-FLAG (Sigma-Aldrich) and Protein G agarose PLUS beads (Santa Cruz Biotechnologies). The beads were incubated overnight at 4° C., pelleted, washed and then suspended in Laemeli buffer. […] Chemiluminescence was measured using Pico chemiluminescent substrate (Thermo Scientific).

C57Bl/6 mice [9] = test: Cardiac function by echocardiography following ischemia-reperfusion (I/R) injury in mice; format: in vivo; details: echocardiography after I/R; compared to scrambled pepducin
Method: Cardiac function was assessed via transthoracic two-dimensional echocardiography performed at baseline and at 1, 3 and 7 days post MI using a […] probe on mice anesthetized with isoflurane (1.5%). M-mode echocardiography was performed in the parasternal short-axis view to assess several cardiac parameters including left ventricular (LV) fractional shortening, calculated using the equation […].

mBB-β2AR = test: Monobromobimane-labeled purified β2AR fluorescence (TM6 movement); format: biochemical; details: loss of peak fluorescence and increase in λmax
From the text: Full-length PN1-β2AR was purified from Sf9 insect cells and labeled with monobromobimane as previously described (5, 46). […] Background fluorescence contributed by the assay buffer and ligand were subtracted from the experimental spectra.

[10] = intramyocardial injection, 60 min ligation, vs scrambled pepducin

## CCCCCCCCCCCCCCCC(=O)N[C@H](C(=O)N[C@@H](C)C(=O)N[C@H](C(=O)N[C@@H](C)C(=O)N[C@@H](CCCCN)C(=O)N[C@@H](Cc1ccccc1)C(=O)N[C@@H](CCC(=O)O)C(=O)N[C@@H](CCCNC(=N)N)C(=O)N[C@@H](CC(C)C)C(=O)N[C@@H](CCC(N)=O)C(=O)N[C@H](C(=O)N[C@H](C(=O)N[C@H](C(=O)N[C@@H](CC(N)=O)C(=O)N[C@@H](Cc1ccc(O)cc1)C(=O)N[C@@H](Cc1ccccc1)C(=O)N[C@H](C(=O)N[C@H](C(N)=O)[C@@H](C)O)[C@@H](C)CC)[C@@H](C)O)C(C)C)[C@@H](C)O)[C@@H](C)CC)[C@@H](C)O [ICL1-9] (HELM PEPTIDE1{[CCCCCCCCCCCCCCCC(=O)[*:2]].T.A.I.A.K.F.E.R.L.Q.T.V.T.N.Y.F.I.T.[am]}$$$$V2.0)
CXCR4
  β-arrestin2 recruitment to CXCR4: had no effect
FLAG-β1AR
  FLAG-β1AR internalization: did not induce significant receptor internalization
β2AR [1]
  effect on [125I]-iodocyanopindolol binding to β2ARs: did not affect [^125I]-iodocyanopindolol binding
Phospholamban (PLB)
  PLB phosphorylation: unable to induce significant PLB phosphorylation
FLAG-β2AR [2]
  cAMP production compared to vehicle control: does not promote any cAMP production; also recorded: did not promote any cAMP production
[3]
  calcium mobilization: did not promote significant calcium mobilization
C57Bl/6 mice [4]; versus scrambled pepducin
  cell death within the infarct zone (TUNEL): significantly reduced
C57Bl/6 mice [4]; between groups
  area-at-risk (AAR): not significantly different
  area-not-at-risk: not significantly different
C57Bl/6 mice [4]; [10]
  infarct area as a percentage of AAR: significantly reduced
  infarct area as a percentage of total left ventricular (LV) area: significantly reduced
β1AR
  β-arrestin recruitment to the β1AR (FRET): no change in FRET activity
ERK1/2
  ERK1/2 phosphorylation: faster kinetics despite similar efficacy when compared to carvedilol
β2AR [5]
  β-arrestin coupling to the β2AR after pretreatment with ICI-118,551: significantly inhibited by pretreatment with ICI-118,551
EGFR
  EGFR transactivation (phosphorylation at EGFR Tyr845): promoted EGFR transactivation
FLAG-β2AR [6]
  FLAG-β2AR internalization: stimulate comparable levels of FLAG-β2AR internalization; also recorded: able to promote β2AR internalization
[7]; wild-type adult murine cardiomyocytes, 10 μM ICL1-9, 0.5 μM isoproterenol, 2 Hz
  cardiomyocyte contraction, of isoproterenol-promoted: ~53%
[7]; β2AR-knockout adult murine cardiomyocytes, 10 μM
  cardiomyocyte contraction, β2AR-knockout: significantly impaired responsiveness; also recorded: unable to promote significant contraction
[7]; β-arrestin1-knockout adult murine cardiomyocytes, 10 μM
  cardiomyocyte contraction, β-arrestin1-knockout: significantly impaired responsiveness; also recorded: unable to promote significant contraction
[7]; β-arrestin2-knockout adult murine cardiomyocytes, 10 μM
  cardiomyocyte contraction, β-arrestin2-knockout: significantly impaired responsiveness
FLAG-β2AR [8]
  β2AR phosphorylation at Ser355/Ser356: stimulated similar receptor phosphorylation albeit with slower kinetics and extent of phosphorylation; also recorded: promoted robust receptor phosphorylation
C57Bl/6 mice [9]
  cardiac contractility (% fractional shortening): significantly blunted FR-induced loss of cardiac contractility
mBB-β2AR
  mbb-β2AR conformational change (TM6 movement): able to promote mbb-β2AR conformational changes that stabilized TM6 movement
